Source: PubChem BioAssay (NCI)
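Briefly, cells in 96-well plates were exposed to five compound concentrations for 48 h, and endpoints were estimated by linear interpolation. At the TGI there is no net growth.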

Legend:
Experiment in all cases: NCI tumour cell line growth inhibition, 48 h
NCI-H460 lung = test system: NCI-H460 lung
HL-60(TB) leukemia = test system: HL-60(TB) leukemia
RXF 393 renal = test system: RXF 393 renal
HCC-2998 colon = test system: HCC-2998 colon
MDA-MB-435 = test system: MDA-MB-435
TK-10 renal = test system: TK-10 renal
OVCAR-5 ovarian = test system: OVCAR-5 ovarian
SNB-19 CNS = test system: SNB-19 CNS
BT-549 breast = test system: BT-549 breast
NCI-H522 lung = test system: NCI-H522 lung
HS 578T breast = test system: HS 578T breast
NCI-H23 lung = test system: NCI-H23 lung
U251 CNS = test system: U251 CNS
NCI/ADR-RES ovarian = test system: NCI/ADR-RES ovarian
SK-MEL-2 melanoma = test system: SK-MEL-2 melanoma
OVCAR-4 ovarian = test system: OVCAR-4 ovarian
CCRF-CEM leukemia = test system: CCRF-CEM leukemia
OVCAR-8 ovarian = test system: OVCAR-8 ovarian
PC-3 prostate = test system: PC-3 prostate
HOP-62 NSCLC = test system: HOP-62 NSCLC
HT29 colon = test system: HT29 colon
DU-145 prostate = test system: DU-145 prostate
UO-31 renal = test system: UO-31 renal
T-47D breast = test system: T-47D breast
M14 melanoma = test system: M14 melanoma
K-562 leukemia = test system: K-562 leukemia
UACC-257 melanoma = test system: UACC-257 melanoma
SK-MEL-5 melanoma = test system: SK-MEL-5 melanoma
SNB-75 CNS = test system: SNB-75 CNS
SN12C renal = test system: SN12C renal
A498 renal = test system: A498 renal
HCT-15 colon = test system: HCT-15 colon
786-0 renal = test system: 786-0 renal
HCT-116 colon = test system: HCT-116 colon
MCF7 breast = test system: MCF7 breast
SR leukemia = test system: SR leukemia
MOLT-4 leukemia = test system: MOLT-4 leukemia
SF-539 CNS = test system: SF-539 CNS
EKVX NSCLC = test system: EKVX NSCLC
CAKI-1 renal = test system: CAKI-1 renal
KM12 colon = test system: KM12 colon
SF-295 CNS = test system: SF-295 CNS
SF-268 CNS = test system: SF-268 CNS
MDA-MB-231 breast = test system: MDA-MB-231 breast
NCI-H226 lung = test system: NCI-H226 lung
MDA-N = test system: MDA-N
LOX IMVI melanoma = test system: LOX IMVI melanoma
SW-620 colon = test system: SW-620 colon
HOP-92 NSCLC = test system: HOP-92 NSCLC
IGROV1 ovarian = test system: IGROV1 ovarian
COLO 205 colon = test system: COLO 205 colon
SK-OV-3 ovarian = test system: SK-OV-3 ovarian
MALME-3M melanoma = test system: MALME-3M melanoma
ACHN renal = test system: ACHN renal
OVCAR-3 ovarian = test system: OVCAR-3 ovarian
UACC-62 melanoma = test system: UACC-62 melanoma
SK-MEL-28 melanoma = test system: SK-MEL-28 melanoma
A549 NSCLC = test system: A549 NSCLC
RPMI-8226 leukemia = test system: RPMI-8226 leukemia

C=CCn1c(-c2ccc(-c3cs/c(=N\N=O)n3CC=C)cc2)cs/c1=N\N=O
TGI (NCI-H460 lung): > 100 µM
TGI (HL-60(TB) leukemia): > 100 µM
TGI (RXF 393 renal): 53 µM
TGI (HCC-2998 colon): > 100 µM
TGI (MDA-MB-435): > 100 µM
TGI (TK-10 renal): > 100 µM
TGI (OVCAR-5 ovarian): > 100 µM
TGI (SNB-19 CNS): > 100 µM
TGI (BT-549 breast): > 100 µM
TGI (NCI-H522 lung): > 100 µM
TGI (HS 578T breast): > 100 µM
TGI (NCI-H23 lung): > 100 µM
TGI (U251 CNS): > 100 µM
TGI (NCI/ADR-RES ovarian): > 100 µM
TGI (SK-MEL-2 melanoma): > 100 µM
TGI (OVCAR-4 ovarian): 57.4 µM
TGI (CCRF-CEM leukemia): > 100 µM
TGI (OVCAR-8 ovarian): > 100 µM
TGI (PC-3 prostate): > 100 µM
TGI (HOP-62 NSCLC): > 100 µM
TGI (HT29 colon): > 100 µM
TGI (DU-145 prostate): > 100 µM
TGI (UO-31 renal): > 100 µM
TGI (T-47D breast): > 100 µM
TGI (M14 melanoma): > 100 µM
TGI (K-562 leukemia): > 100 µM
TGI (UACC-257 melanoma): > 100 µM
TGI (SK-MEL-5 melanoma): > 100 µM
TGI (SNB-75 CNS): 88.5 µM
TGI (SN12C renal): > 100 µM
TGI (A498 renal): > 100 µM
TGI (HCT-15 colon): > 100 µM
TGI (786-0 renal): > 100 µM
TGI (HCT-116 colon): > 100 µM
TGI (MCF7 breast): > 100 µM
TGI (SR leukemia): > 100 µM
TGI (MOLT-4 leukemia): > 100 µM
TGI (SF-539 CNS): > 100 µM
TGI (EKVX NSCLC): > 100 µM
TGI (CAKI-1 renal): > 100 µM
TGI (KM12 colon): > 100 µM
TGI (SF-295 CNS): > 100 µM
TGI (SF-268 CNS): > 100 µM
TGI (MDA-MB-231 breast): 69.3 µM
TGI (NCI-H226 lung): > 100 µM
TGI (MDA-N): > 100 µM
TGI (LOX IMVI melanoma): > 100 µM
TGI (SW-620 colon): > 100 µM
TGI (HOP-92 NSCLC): > 100 µM
TGI (IGROV1 ovarian): > 100 µM
TGI (COLO 205 colon): > 100 µM
TGI (SK-OV-3 ovarian): > 100 µM
TGI (MALME-3M melanoma): > 100 µM
TGI (ACHN renal): > 100 µM
TGI (OVCAR-3 ovarian): > 100 µM
TGI (UACC-62 melanoma): > 100 µM
TGI (SK-MEL-28 melanoma): > 100 µM
TGI (A549 NSCLC): > 100 µM

O=[N+]([O-])c1ccc(S(=O)(=O)Cc2ccccc2)c2nonc12
TGI (NCI-H460 lung): 37.8 µM
TGI (HL-60(TB) leukemia): 45.9 µM
TGI (RXF 393 renal): 33.5 µM
TGI (MDA-MB-435): 40.4 µM
TGI (TK-10 renal): 32 µM
TGI (OVCAR-5 ovarian): > 100 µM
TGI (SNB-19 CNS): > 100 µM
TGI (BT-549 breast): 33.1 µM
TGI (NCI-H522 lung): 38 µM
TGI (HS 578T breast): 58.5 µM
TGI (NCI-H23 lung): 35.5 µM
TGI (U251 CNS): 36.1 µM
TGI (NCI/ADR-RES ovarian): 68 µM
TGI (SK-MEL-2 melanoma): 42.2 µM
TGI (OVCAR-4 ovarian): 34.1 µM
TGI (CCRF-CEM leukemia): 67.8 µM
TGI (OVCAR-8 ovarian): 49 µM
TGI (PC-3 prostate): 34.6 µM
TGI (HOP-62 NSCLC): 43.1 µM
TGI (HT29 colon): 36.7 µM
TGI (DU-145 prostate): 36.3 µM
TGI (UO-31 renal): 45.1 µM
TGI (T-47D breast): 39.8 µM
TGI (M14 melanoma): 31.2 µM
TGI (K-562 leukemia): 76.7 µM
TGI (UACC-257 melanoma): 30.1 µM
TGI (SK-MEL-5 melanoma): 36.5 µM
TGI (SNB-75 CNS): 98.5 µM
TGI (SN12C renal): 28.5 µM
TGI (A498 renal): > 100 µM
TGI (HCT-15 colon): 51.7 µM
TGI (786-0 renal): 37.5 µM
TGI (HCT-116 colon): 31.8 µM
TGI (MCF7 breast): 43 µM
TGI (SR leukemia): > 100 µM
TGI (MOLT-4 leukemia): 83.8 µM
TGI (RPMI-8226 leukemia): 64.2 µM
TGI (SF-539 CNS): 35.5 µM
TGI (EKVX NSCLC): 41.8 µM
TGI (CAKI-1 renal): 38.2 µM
TGI (KM12 colon): 38.7 µM
TGI (SF-295 CNS): > 100 µM
TGI (SF-268 CNS): 39.3 µM
TGI (MDA-MB-231 breast): 50.7 µM
TGI (NCI-H226 lung): > 100 µM
TGI (MDA-N): 40.9 µM
TGI (LOX IMVI melanoma): 38.2 µM
TGI (SW-620 colon): 48.6 µM
TGI (HOP-92 NSCLC): 39.7 µM
TGI (IGROV1 ovarian): 37.3 µM
TGI (COLO 205 colon): 31.1 µM
TGI (SK-OV-3 ovarian): > 100 µM
TGI (MALME-3M melanoma): 33.4 µM
TGI (ACHN renal): 46.1 µM
TGI (OVCAR-3 ovarian): 37.2 µM
TGI (UACC-62 melanoma): 35.1 µM
TGI (SK-MEL-28 melanoma): 38.5 µM
TGI (A549 NSCLC): 83.8 µM
